The test system of this test is HDAC4. As to the kind of experiment: Improving action on expression of HDAC4 in UV-B-irradiated XP-A-iMCs (RT-PCR). It counts as cell-based, human. Conditions: XP-A-iMCs irradiated with high-dose (150 J/m^2) UV-B, compound then added to cell medium, cultured for 24 hours, DMSO control. The method, then:
The XP-A-iMCs were seeded into a 60-millimeter dish, and were irradiated with high-dose (150 J/m^2) UV-B when the XP-A-iMCs became about 70% confluent. […] After that, the expression of HDAC4 was recognized by using a RT-PCR method.
The XP-A-iMCs were seeded into a 60-millimeter dish, and were irradiated with high-dose (150 J/m^2) UV-B when the XP-A-iMCs became about 70% confluent.

In the case of `CC1=NN(c2ccc(C(=O)O)cc2)C(=O)C1=Cc1ccc(-c2cc(C)c(C)cc2[N+](=O)[O-])o1` [C-646], the “expression of HDAC4” value is “significantly recovered”.
